The target in the assay is T1, PDGF-receptor beta enzyme comprising the tyrosine kinase domain (Homo sapiens, UniProt P09619).
T1 construct: from amino acid 545 to 1106 of GenBank Access NO: AAA36427
Nature of the assay: Inhibition of PDGF-receptor kinase activity (cell-free, PLC1 peptide, 33P Flashplate). It is filed as biochemical. Conditions: for inhibition at 10 µM: read-out: Percent Inhibition @ 10 uM. The method in brief: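 The IC50 is the inhibitor level halving kinase activity relative to inhibitor-free wells, measured as 33P captured on a streptavidin-bound biotin-PLC1 peptide. The reaction ran 60 min at 30 °C in pH 8 Tris buffer with 1 mM DTT, 5 μM ATP and the 545–1106 kinase-domain enzyme.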

The mark [1] stands for this setting: PDGF-R kinase activity, compound at 10 uM.
The mark [2] stands for this setting: PDGF-R kinase activity, read-out: IC50.

In patent publication US7196110B2, “N-substituted tricyclic 3-aminopyrazoles as inhibitors for the treatment of cell proliferative disorders” (Janssen Phamaceutica N.V., priority 2002, dated 2007) one finds inhibition and IC50 data, which are given here for 23 compounds.

Read-outs that look alike come from different tables or passages of the source.

T1 sequence (P09619 545-1106): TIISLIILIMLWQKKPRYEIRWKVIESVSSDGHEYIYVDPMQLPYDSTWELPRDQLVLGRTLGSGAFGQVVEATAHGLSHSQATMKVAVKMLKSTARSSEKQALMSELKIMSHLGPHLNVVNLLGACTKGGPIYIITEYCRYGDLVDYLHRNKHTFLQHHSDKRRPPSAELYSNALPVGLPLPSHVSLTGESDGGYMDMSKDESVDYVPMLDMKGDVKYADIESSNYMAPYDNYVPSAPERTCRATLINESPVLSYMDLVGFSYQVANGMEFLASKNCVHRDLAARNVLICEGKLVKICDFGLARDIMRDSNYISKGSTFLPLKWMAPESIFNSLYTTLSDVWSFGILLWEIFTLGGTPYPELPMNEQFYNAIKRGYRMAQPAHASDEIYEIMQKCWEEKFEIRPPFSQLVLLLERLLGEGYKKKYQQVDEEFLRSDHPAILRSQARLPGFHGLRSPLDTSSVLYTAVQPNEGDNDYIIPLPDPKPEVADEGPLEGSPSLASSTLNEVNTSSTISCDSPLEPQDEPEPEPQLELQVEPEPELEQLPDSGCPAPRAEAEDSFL

The term inhibition denotes the percentage by which the read-out fell short of the control. What is called IC50 is the concentration at which inhibition is half-maximal. With `COc1cc2c(cc1OC)-c1c(c(Nc3cccc(F)c3)nn1C(=O)C(C)C)C2` [Compound 431, 1-[3-(3-Fluoro-phenylamino)-6,7-dimethoxy-4H-indeno[1,2-c]pyrazol-1-yl]-2-methyl-propan-1-one], the inhibition at 10 µM under setting [1] was 84.5%. Further, under setting [2], the half-inhibitory concentration (IC50) amounted to 0.444 µM. Consider `COC(=O)n1nc2c(c1Nc1cccc(F)c1)Cc1cc(OC)c(OC)cc1-2` [Compound 434, 3-(3-Fluoro-phenylamino)-6,7-dimethoxy-4H-indeno[1,2-c]pyrazole-2-carboxylic acid methyl ester], for which, under setting [1], the inhibition at 10 µM is 86%. Moreover, the IC50 under setting [2] amounted to 0.503 µM. Consider `CCOC(=O)n1nc2c(c1Nc1cccc(F)c1)Cc1cc(OC)c(OC)cc1-2` [Compound 435, 3-(3-Fluoro-phenylamino)-6,7-dimethoxy-4H-indeno[1,2-c]pyrazole-2-carboxylic acid ethyl ester], for which, under setting [1], the inhibition at 10 µM is 67%. Moreover, under setting [2], the IC50 was found to be 1.59 µM.

`COCCOC(=O)n1nc2c(c1Nc1cccc(F)c1)Cc1cc(OC)c(OC)cc1-2` [Compound 437, 3-(3-Fluoro-phenyl-amino)-6,7-dimethoxy-4H-indeno[1,2-c]pyrazole-2-carboxylic acid 2-methoxy-ethyl ester]: under setting [1], the inhibition at 10 µM was determined as 83.5%. In addition, under setting [2], the IC50 amounted to 0.291 µM. Turning to `COCCOC(=O)n1nc(Nc2cccc(F)c2)c2c1-c1cc(OC)c(OC)cc1C2` [Compound 438, 3-(3-Fluoro-phenylamino)-6,7-dimethoxy-4H-indeno[1,2-c]pyrazole-1-carboxylic acid 2-methoxy-ethyl ester], the inhibition at 10 µM under setting [1] came out at 77.5%. Besides, the IC50 under setting [2] amounted to 0.992 µM. Turning to `COC(=O)n1nc(Nc2cccc(F)c2)c2c1-c1cc(OC)c(OC)cc1C2` [Compound 439, 3-(3-Fluoro-phenylamino)-6,7-dimethoxy-4H-indeno[1,2-c]pyrazole-1-carboxylic acid methyl ester], the inhibition at 10 µM under setting [1] was found to be 69.5%. Further, the IC50 under setting [2] is 0.62 µM. The like results for `OCCCOc1cccc2c1Cc1c-2n[nH]c1Nc1cccc(Cl)c1` [Compound 440, 3-[3-(3-Chloro-phenylamino)-2,4-dihydro-indeno[1,2-c]pyrazol-5-yloxy]-propan-1-ol] were, in that order, 89.5% and 0.0457 µM. For the compound `CCOc1cccc(Nc2[nH]nc3c2Cc2c(OCCCO)cccc2-3)c1` [Compound 441, 3-[3-(3-Ethoxy-phenylamino)-2,4-dihydro-indeno[1,2-c]pyrazol-5-yloxy]-propan-1-ol], the inhibition at 10 µM under setting [1] was determined as 96%. The half-inhibitory concentration (IC50) under setting [2] is 0.206 µM. For `OCCCOc1cccc2c1Cc1c-2n[nH]c1Nc1cccc(F)c1` [Compound 442, 3-[3-(3-Fluoro-phenylamino)-2,4-dihydro-indeno[1,2-c]pyrazol-5-yloxy]-propan-1-ol] the same measures were 94.5% and 0.205 µM. The like results for `OCCCOc1cccc2c1Cc1c-2n[nH]c1NCc1c(F)cccc1F` [Compound 443, 3-[3-(2,6-Difluoro-benzylamino)-2,4-dihydro-indeno[1,2-c]pyrazol-5-yloxy]-propan-1-ol] were, in that order, 89.5% and 0.098 µM. The like results for `OCCCOc1cccc2c1Cc1c-2n[nH]c1NCc1ccccc1F` [Compound 444, 3-[3-(2-Fluoro-benzylamino)-2,4-dihydro-indeno[1,2-c]pyrazol-5-yloxy]-propan-1-ol] were, in that order, 79.5% and 0.518 µM. With `Cc1ccccc1CNc1[nH]nc2c1Cc1c(OCCCO)cccc1-2` [Compound 445, 3-[3-(2-Methyl-benzylamino)-2,4-dihydro-indeno[1,2-c]pyrazol-5-yloxy]-propan-1-ol], the inhibition at 10 µM under setting [1] stood at 95%. The IC50 under setting [2] worked out at 0.0253 µM.

As to `CCOP(=O)(OCC)n1nc(Nc2cccc(F)c2)c2c1-c1cc(OC)c(OC)cc1C2` [Compound 446, [3-(3-Fluoro-phenylamino)-6,7-dimethoxy-4H-indeno[1,2-c]pyrazol-1-yl]-phosphonic acid diethyl ester], the inhibition at 10 µM is 93.5%. For the same compound, under “IC50 (μM), PDGF-R kinase activity”, the concentration for half-maximal inhibition (IC50) turned out to be 0.266 µM.

With `COc1cc2c(cc1OC)-c1c(c(Nc3cccc(F)c3)nn1S(=O)(=O)N(C)C)C2` [Compound 447, 3-(3-Fluoro-phenylamino)-6,7-dimethoxy-4H-indeno[1,2-c]pyrazole-1-sulfonic acid dimethylamide], under setting [1], the inhibition at 10 µM came out at 7%. As for `COc1cc2c(cc1OCC(O)CO)Cc1c-2n[nH]c1NCc1c(Cl)cccc1Cl` (stereo not drawn) [Compound 450, 3-[3-(2,6-Dichloro-benzylamino)-7-methoxy-2,4-dihydro-indeno[1,2-c]pyrazol-6-yloxy]-propane-1,2-diol], the inhibition at 10 µM under setting [1] worked out at 100%. Also, the concentration for half-maximal inhibition (IC50) under setting [2] came to 0.000938 µM. For the compound `COc1cc2c(cc1OCC(O)CO)Cc1c-2n[nH]c1NCc1ccccc1Cl` (stereo not drawn) [Compound 451, 3-[3-(2-Chloro-benzylamino)-7-methoxy-2,4-dihydro-indeno[1,2-c]pyrazol-6-yloxy]-propane-1,2-diol], the inhibition at 10 µM under setting [1] came to 99.5%. Also, under setting [2], the IC50 was determined as 0.002 µM. The like results for `COc1ccncc1Nc1[nH]nc2c1Cc1cc(OC)c(OC)cc1-2` [Compound 453, (6,7-Dimethoxy-2,4-dihydro-indeno[1,2-c]pyrazol-3-yl)-(4-methoxy-pyridin-3-yl)-amine] were, in that order, 88% and 0.829 µM.

Consider `COc1cc2c(cc1OC)-c1n[nH]c(Nc3c(OC)ccnc3OC)c1C2` [Compound 454, (6,7-Dimethoxy-2,4-dihydro-indeno[1,2-c]pyrazol-3-yl)-(2,4-dimethoxy-pyridin-3-yl)-amine], for which, under setting [1], the inhibition at 10 µM worked out at 99%. The concentration for half-maximal inhibition (IC50) under setting [2] was found to be 0.258 µM.

With `COc1cc2c(cc1OC)-c1n[nH]c(NCc3cc(-c4ccccc4)on3)c1C2` [Compound 455, (6,7-Dimethoxy-2,4-dihydro-indeno[1,2-c]pyrazol-3-yl)-(5-phenyl-isoxazol-3-ylmethyl)-amine], the inhibition at 10 µM under setting [1] was determined as 95%. The IC50 under setting [2] was determined as 0.153 µM. For `COc1ccc(C(=O)n2nc(Nc3cccc(F)c3)c3c2-c2cc(OC)c(OC)cc2C3)cc1` [Compound 458, [3-(3-Fluoro-phenylamino)-6,7-dimethoxy-4H-indeno[1,2-c]pyrazol-1-yl]-(4-methoxy-phenyl)-methanone] the same measures were 70.5% and 7 µM. The like results for `CCOc1cc2c(cc1OCC(O)CN1CCCC1)-c1n[nH]c(Nc3cccc(OC)c3)c1C2` (stereo not drawn) [Compound 462, 1-[6-Ethoxy-3-(3-methoxy-phenylamino)-2,4-dihydro-indeno[1,2-c]pyrazol-7-yloxy]-3-pyrrolidin-1-yl-propan-2-ol] were, in that order, 99% and 0.00215 µM. For `COC(=O)CCCC(=O)n1nc(Nc2cccc(F)c2)c2c1-c1cc(OC)c(OC)cc1C2` [Compound 464, 5-[3-(3-Fluoro-phenylamino)-6,7-dimethoxy-4H-indeno[1,2-c]pyrazol-1-yl]-5-oxo-pentanoic acid methyl ester] the same measures were 92% and 0.245 µM. With `COc1cc2c(cc1OC)-c1c(c(Nc3cccc(F)c3)nn1C(=O)OCCOCc1ccccc1)C2` [Compound 470, 3-(3-Fluoro-phenylamino)-6,7-dimethoxy-4H-indeno[1,2-c]pyrazole-1-carboxylic acid 2-benzyloxy-ethyl ester], under setting [1], the inhibition at 10 µM is 96%. Moreover, the IC50 under setting [2] turned out to be 0.197 µM.
